Experimental data as given in ChEMBL document CHEMBL1201862, “PubChem BioAssay data set” (2004).
The source made the active and inactive calls.

Assays:
[1] = molecular target: T1, Aryl hydrocarbon receptor (Homo sapiens, UniProt P35869); settings: Potency;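 note: confirmatory quantitative high-throughput screen measuring activation of the AhR signaling pathway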
T1 sequence (P35869 whole entry): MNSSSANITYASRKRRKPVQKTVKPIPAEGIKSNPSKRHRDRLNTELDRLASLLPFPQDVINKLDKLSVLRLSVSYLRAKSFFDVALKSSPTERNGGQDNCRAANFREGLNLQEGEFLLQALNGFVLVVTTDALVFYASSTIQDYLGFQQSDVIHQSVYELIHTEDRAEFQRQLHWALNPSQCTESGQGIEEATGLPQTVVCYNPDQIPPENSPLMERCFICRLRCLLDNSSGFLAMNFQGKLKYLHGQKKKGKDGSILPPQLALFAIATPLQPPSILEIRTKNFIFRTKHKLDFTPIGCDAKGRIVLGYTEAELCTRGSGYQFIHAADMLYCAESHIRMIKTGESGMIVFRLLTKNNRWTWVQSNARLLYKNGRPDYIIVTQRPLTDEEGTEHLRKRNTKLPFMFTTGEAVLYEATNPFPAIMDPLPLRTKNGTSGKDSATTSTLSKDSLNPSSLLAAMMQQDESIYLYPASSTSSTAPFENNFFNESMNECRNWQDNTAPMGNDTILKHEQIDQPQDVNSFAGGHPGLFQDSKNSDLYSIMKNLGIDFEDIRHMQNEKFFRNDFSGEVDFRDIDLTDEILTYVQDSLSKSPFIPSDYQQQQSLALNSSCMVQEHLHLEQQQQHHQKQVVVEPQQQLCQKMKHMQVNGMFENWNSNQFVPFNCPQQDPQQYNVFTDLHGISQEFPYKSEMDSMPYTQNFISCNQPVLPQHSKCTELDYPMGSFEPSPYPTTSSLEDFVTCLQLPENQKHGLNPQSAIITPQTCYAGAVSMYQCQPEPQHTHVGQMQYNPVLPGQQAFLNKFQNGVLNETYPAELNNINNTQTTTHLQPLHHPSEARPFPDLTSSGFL

[2] = activation of miR-122 Renilla sensor silencing – cell-based, Huh7 psiCHECK-miR122, Renilla luciferase, cherry-picked, dose response (AID 651956); assay type: functional;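 note: huh7 hepatoma cells stably carrying a psiCHECK-2 miR-122 sensor plasmid; renilla luciferase signal reporting endogenous miR-122 activity after 48 h compound exposure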
[3] = molecular target: T2, Corticotropin-releasing factor receptor 2/Corticotropin-releasing factor-binding protein (Homo sapiens, UniProt P24387+Q13324); assay: Dose Response confirmation of uHTS hits for small molecule antagonists of the CRF-binding protein and CRF-R2 receptor complex.; assay type: functional; settings: read-out: IC50_Mean
T2 sequence (Q13324 whole entry): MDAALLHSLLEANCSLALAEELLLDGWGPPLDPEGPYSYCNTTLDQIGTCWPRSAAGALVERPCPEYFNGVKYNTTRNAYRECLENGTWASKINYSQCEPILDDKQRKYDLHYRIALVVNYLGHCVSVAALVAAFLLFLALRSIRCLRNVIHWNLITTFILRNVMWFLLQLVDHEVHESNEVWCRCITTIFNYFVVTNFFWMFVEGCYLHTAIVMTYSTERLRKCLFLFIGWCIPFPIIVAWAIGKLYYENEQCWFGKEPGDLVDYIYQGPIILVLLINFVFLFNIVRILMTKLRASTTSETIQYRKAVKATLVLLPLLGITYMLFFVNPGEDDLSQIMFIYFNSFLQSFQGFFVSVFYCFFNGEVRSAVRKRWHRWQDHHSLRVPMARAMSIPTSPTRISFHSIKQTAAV
T2 sequence (P24387 whole entry): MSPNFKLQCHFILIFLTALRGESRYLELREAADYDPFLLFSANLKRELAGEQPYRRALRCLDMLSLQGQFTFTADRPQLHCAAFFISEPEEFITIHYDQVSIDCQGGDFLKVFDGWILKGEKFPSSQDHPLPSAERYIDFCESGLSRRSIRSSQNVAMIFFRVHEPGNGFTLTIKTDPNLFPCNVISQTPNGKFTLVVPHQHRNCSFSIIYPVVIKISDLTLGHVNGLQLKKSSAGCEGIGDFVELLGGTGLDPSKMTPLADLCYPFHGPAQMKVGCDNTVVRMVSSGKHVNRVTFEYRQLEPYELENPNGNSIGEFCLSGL

[4] = molecular target: T2, Corticotropin-releasing factor receptor 2/Corticotropin-releasing factor-binding protein; assay: activators of CRF receptor 2 with binding protein – uHTS hits, confirmation (AID 602473); assay type: functional; settings: read-out: EC50_Mean
[5] = blockers of CRF-binding protein–CRF-R2 complex – cell-based, uHTS hits, 384-well, dose response (AID 651639); assay type: functional, Homo sapiens; settings: read-out: IC50_Mean
[6] = Luminescence Cell-Based Dose Retest to Confirm Inhibitors of Cancer Stem Cells. [Related pubchem assays (depositor defined):AID2717, AID2721]; assay type: functional; settings: Homo sapiens
[7] = molecular target: T3, Zinc finger protein mex-5 (Caenorhabditis elegans, UniProt Q9XUB2); assay: potency of MEX-5 RNA-binding blockers – biochemical, C. elegans, fluorescence polarization, dose response (AID 1960)
T3 sequence (Q9XUB2 whole entry): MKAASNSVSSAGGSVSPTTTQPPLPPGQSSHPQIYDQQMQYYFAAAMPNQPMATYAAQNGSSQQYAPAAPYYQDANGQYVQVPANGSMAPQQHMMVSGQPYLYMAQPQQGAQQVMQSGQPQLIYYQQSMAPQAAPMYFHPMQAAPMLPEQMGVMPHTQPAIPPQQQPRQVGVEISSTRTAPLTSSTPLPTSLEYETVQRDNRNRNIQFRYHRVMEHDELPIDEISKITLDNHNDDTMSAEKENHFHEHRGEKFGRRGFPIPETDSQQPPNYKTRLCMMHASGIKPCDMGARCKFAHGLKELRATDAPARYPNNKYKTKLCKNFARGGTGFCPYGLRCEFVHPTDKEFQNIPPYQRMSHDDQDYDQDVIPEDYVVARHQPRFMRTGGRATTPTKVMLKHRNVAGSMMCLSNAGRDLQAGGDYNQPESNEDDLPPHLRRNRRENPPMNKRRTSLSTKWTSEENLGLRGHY

[8] = molecular target: T4, RNA-binding protein pos-1 (Caenorhabditis elegans, UniProt G5EF15); assay: disruptors of C. elegans POS-1 RNA interaction – biochemical, fluorescence polarization, dose response (AID 1964);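 note: purified POS-1 fused to maltose binding protein made in E. coli; potency of compounds blocking POS-1 binding to fluorescent RNA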
T4 sequence (G5EF15 whole entry): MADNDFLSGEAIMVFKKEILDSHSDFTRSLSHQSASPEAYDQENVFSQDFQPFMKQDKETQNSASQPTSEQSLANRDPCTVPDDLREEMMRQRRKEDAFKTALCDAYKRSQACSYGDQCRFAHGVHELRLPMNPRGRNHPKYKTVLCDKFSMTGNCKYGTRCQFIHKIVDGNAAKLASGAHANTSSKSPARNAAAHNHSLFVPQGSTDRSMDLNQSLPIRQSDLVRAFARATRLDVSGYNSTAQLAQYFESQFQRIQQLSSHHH

[9] = molecular target: T5, Endoribonuclease toxin MazF (Escherichia coli K-12, UniProt P0AE70); assay: activation of MazEF endoribonuclease cleavage – biochemical, fluorescence, single-stranded RNA substrate, uHTS hits, dose response (AID 588481); assay type: functional
T5 sequence (P0AE70 whole entry): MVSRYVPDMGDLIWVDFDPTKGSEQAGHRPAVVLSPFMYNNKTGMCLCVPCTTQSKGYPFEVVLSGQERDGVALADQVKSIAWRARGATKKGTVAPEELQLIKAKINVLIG

[10] = molecular target: T5, Endoribonuclease toxin MazF; assay: substrate-only fluorescence increase artefacts – biochemical, single-stranded RNase substrate, counter-screen for MazEF activator project, dose response (AID 588502); assay type: functional

CCOP(=S)(OCC)Oc1ccc2c(C)c(Cl)c(=O)oc2c1 [COUMAPHOS]
AC50 [1]: 0.178 µM (inconclusive)

C1=C/CC/C=C/CC/C=C/CC/1
AC50 [1]: 44.7 µM (inconclusive)

Cc1ccc(-c2cnc3c(c2)C(=O)N([C@H](C)CO)C[C@@H](C)[C@H](CN(C)CC2CCCCC2)O3)cc1
AC50 [2]: 18.3 µM (active)

CCN(c1ccccc1)c1nc(C#N)nc(N(CC)c2ccccc2)n1
IC50 [3]: 0.723 µM (active) | EC50 [4]: > 53 µM (inactive) | IC50 [5]: 6 µM (active) | AC50 [6]: 3.66 µM (active)

C=CCN1C(=O)/C(=C2/Sc3ccc(OC)cc3N2CC)SC1=S
EC50 [7]: > 300 µM (not active) | EC50 [8]: > 300 µM (inconclusive) | EC50 [9]: > 99 µM (inactive) | EC50 [4]: > 53 µM (inactive) | EC50 [10]: > 99 µM (inactive)

O=C(C1CCOCC1)N1[C@H](CO)[C@H]2c3ccccc3NC[C@H]21
AC50 [2]: 30 µM (active)
